The target in series [1] is T1, BSA (Bos taurus, UniProt P02769).
T1 construct: BSA stock solution (35%, in water, 0.85% sodium chloride, from Sigma); purchased Sigma / Sigma Aldrich
Description: Reduction of aggregation of BSA induced by methanol, SEC HPLC. It is filed as physicochemical, Bovine. The settings on record: precipitated with PEG 3400 and methanol, re-dissolved in PBS. How it is done: BSA stock solution (0.050 ml, 35%, 0.85% sodium chloride, Sigma) was diluted with 0.050 ml of sodium phosphate buffer (50 mM, pH 7.4, no sodium chloride) and 0.050 ml of water (HPLC grade). A separate sample was prepared in the same way, but replacing the 0.050 ml of water using 0.050 ml of an excipient solution containing pyridoxal phosphate (represented as X2 in FIG. 1, 100 mg/ml in water, pH 7.4). To each of the two samples in test tubes were added 0.350 ml of an aqueous solution of polyethylene glycol (molecular weight 3400, 75%) to turn the mixtures cloudy, followed by addition of 0.50 ml of methanol (HPLC grade). Then the samples were centrifuged to collect the precipitates. The precipitates were re-dissolved in PBS buffer and analyzed on Size Exclusion Chromatography HPLC. Without excipient, about two thirds of BSA was found in the form of aggregates, while only a quarter of BSA appeared as aggregate in the samples using excipient pyridoxal phosphate.

Series [2] addresses T1, BSA. Put plainly: Reduction of aggregation of BSA induced by t-butanol, SEC HPLC. The settings on record: BSA precipitated with t-butanol, re-dissolved in PBS. It is filed as physicochemical, Bovine. As to the method: To three separate test tubes containing 0.050 ml of BSA (35%, 0.85% sodium chloride) and 0.050 ml of phosphate buffer (50 mM, pH 7.4), were respectively added 0.010 ml of water, 0.010 mll of 2-formylbenzenesulfonic acid sodium salt (75 mg/ml, pH 8), and 0.010 ml of pyridoxal phosphate (100 mg/ml, pH 7.4). To each of the three tubes were then added 0.50 ml of PEG solution (75%, molecular weight 3400) followed by centrifugation to give some precipitate. The three supernatants were collected to have BSA at saturated concentrations, and to them were separately added 0.50 ml of t-butanol to have more BSA precipitates after centrifugation. The crops of precipitates from t-butanol were washed with t-butanol twice (0.75 ml each) and re-dissolved in PBS buffer (50 mM sodium phosphate, pH 7.4, 0.85% sodium chloride) for SEC HPLC analysis. Plain BSA produced about 75% of aggregates, the sample with 2-formylbenzenesulfonic acid produced about 60% of aggregates, the sample with pyridoxal phosphate produced less than 50% of aggregates.

The next series addresses T2, zinc-free bovine insulin (Bos taurus, UniProt P01317).
T2 construct: A solution of zinc-free bovine insulin was prepared in phosphate buffer
Put plainly: Inhibition of insulin fibrillation by pyridoxal phosphate, rotator at 39° C. It is filed as physicochemical. How it is done: A solution of zinc-free bovine insulin was prepared in phosphate buffer (50 mM, pH 7.4, no sodium chloride) at concentration of 1.2 mg/ml. Two aliquots of 2.0 ml each were transferred into two separate glass tubes (sanitized in boiling water), and 0.10 ml of water was added to one tube, and 0.10 ml of pyridoxal phosphate (100 mg/ml, in water, pH 7.4) was added to the other. Both tubes were capped and put on a rotator (12 rotations per minute) in an oven at temperature of 39° C.
A solution of zinc-free bovine insulin was prepared in phosphate buffer (50 mM, pH 7.0, no sodium chloride) at concentration of 1.2 mg/ml. Two aliquots of 2.0 ml each were transferred into two separate glass tubes (sanitized in boiling water), and 0.10 ml of water was added to each tube. To 4.0 ml of the insulin solution was added 0.20 ml of pyridoxal phosphate (100 mg/ml, in water, pH 7.4) and the pH was adjusted to 7.0, and divided into two separate glass tubes (sanitized in boiling water). All the four tubes were capped and put on a rotator (12 rotations per minute) in an oven at temperature of 39° C.
A solution of zinc-free bovine insulin (50 mg) was dissolved in 0.50 ml of 0.1 N hydrochloric acid, and neutralized using 0.1 N sodium hydroxide until it turned cloudy and clear again. Then 0.667 ml of pyridoxal phosphate solution (167 mg/ml, pH 7.0 in water) was added to the insulin solution, and the pH was re-adjusted to 7.4 using dilute sodium hydroxide. The total volume was adjusted to 2.5 ml with HPLC grade water. Serial dilution using water provided four samples (1.0 ml each) of insulin concentrations at 2.0, 5.0, 10, 15 mg/ml. All the four samples in glass vials, together with 0.5 ml of the remaining insulin-pyridoxal phosphate solution (20 mg/ml) were capped and put on a rotator (12 rotations per minute) in an oven at temperature of 39° C.

T2 sequence (P01317 25-54 limits assumed): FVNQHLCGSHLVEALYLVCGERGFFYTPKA
T2 sequence (P01317 85-105 limits assumed): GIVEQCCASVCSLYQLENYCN
T1 sequence (P02769 25-607): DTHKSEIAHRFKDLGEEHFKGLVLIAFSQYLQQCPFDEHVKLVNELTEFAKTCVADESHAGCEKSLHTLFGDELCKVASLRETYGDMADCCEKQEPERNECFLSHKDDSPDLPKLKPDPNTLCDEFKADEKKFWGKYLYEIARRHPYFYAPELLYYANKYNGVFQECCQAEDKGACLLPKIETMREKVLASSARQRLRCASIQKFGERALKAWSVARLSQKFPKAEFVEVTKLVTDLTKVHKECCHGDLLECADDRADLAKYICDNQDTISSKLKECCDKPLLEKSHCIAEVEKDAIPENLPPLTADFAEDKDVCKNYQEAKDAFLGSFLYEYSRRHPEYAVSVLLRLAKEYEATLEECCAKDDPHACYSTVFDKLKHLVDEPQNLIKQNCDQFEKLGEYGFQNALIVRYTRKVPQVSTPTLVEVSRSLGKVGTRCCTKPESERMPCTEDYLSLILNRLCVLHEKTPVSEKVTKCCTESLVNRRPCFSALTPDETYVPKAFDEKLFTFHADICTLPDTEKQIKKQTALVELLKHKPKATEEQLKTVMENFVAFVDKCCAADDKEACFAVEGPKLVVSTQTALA

With `Cc1ncc(COP(=O)(O)O)c(C=O)c1O` [pyridoxal phosphate], the “Fraction of BSA appearing as aggregate” value on BSA [1] was “a quarter”. Besides, the Aggregates produced result on BSA [2] is listed as “less than 50%”. The “Appearance of insulin solution (fibrillation)” value is “still remained clear beyond four weeks” on zinc-free bovine insulin (pH 7.0, insulin 1.2 mg/ml, 0.20 ml pyridoxal phosphate 100 mg/ml in 4.0 ml); “still remained clear after five weeks” at zinc-free bovine insulin (pH 7.4, insulin 1.2 mg/ml, 0.10 ml pyridoxal phosphate 100 mg/ml in 2.0 ml); “still remained clear after three weeks” on zinc-free bovine insulin (pH 7.4, insulin 2.0, 5.0, 10, 15 and 20 mg/ml with pyridoxal phosphate serially diluted).

For the origin of these results see patent US8642532B2, “Excipients for protein stabilization” (priority 2007, dated 2014).
